Experimental data reported in paper PMC8434068, “An Evaluation of Understudied Phytocannabinoids and Their Effects in Two Neuronal Models” (Molecules, 2021).

Target: T1, CB1 receptor (Rattus norvegicus, UniProt P20272)
T1 construct: gene Cnr1
Assay: Pink Flamindo cAMP assay in CB1-transfected HEK293 cells, antagonism of 2-AG; also reverses bath-applied 2-AG in autaptic neurons
Type: cell-based

T1 sequence (P20272 whole entry): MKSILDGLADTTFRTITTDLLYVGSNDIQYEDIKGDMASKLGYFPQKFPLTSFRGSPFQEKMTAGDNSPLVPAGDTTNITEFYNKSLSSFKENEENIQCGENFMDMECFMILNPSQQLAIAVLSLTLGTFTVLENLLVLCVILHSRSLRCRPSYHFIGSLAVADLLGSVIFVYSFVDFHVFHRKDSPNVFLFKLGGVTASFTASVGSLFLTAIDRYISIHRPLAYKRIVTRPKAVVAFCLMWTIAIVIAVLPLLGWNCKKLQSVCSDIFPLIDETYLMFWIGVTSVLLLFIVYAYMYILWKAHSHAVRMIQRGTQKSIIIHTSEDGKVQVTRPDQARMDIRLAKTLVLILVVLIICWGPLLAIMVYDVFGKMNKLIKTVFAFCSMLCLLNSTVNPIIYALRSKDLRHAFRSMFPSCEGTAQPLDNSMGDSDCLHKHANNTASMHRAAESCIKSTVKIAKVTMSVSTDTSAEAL

CCCc1cc(O)c2c(c1)OC(C)(C)[C@@H]1CCC(C)=C[C@@H]21 [THCV, Δ^9-tetrahydrocannabivarin]
IC50: 7.3 nM
